# Test results: US8207330B2, “Two-photon absorption material and application thereof” (Ricoh Company, Ltd., priority 2008, dated 2012)
# Assay: Two-photon absorption cross-sectional area, Z scan method, Examples C
# Type: physicochemical
# Conditions: tetrahydrofuran solution, wavelength 800 nm
# Procedure: Compound 1-7 (porphyrin derivative) of the present invention was dissolved in tetrahydrofuran, and the resultant tetrahydrofuran solution was measured for its two-photon absorption cross-sectional area according to the below-described evaluation method therefor.
# The following Comparative Compound 1 was dissolved in tetrahydrofuran, and the resultant tetrahydrofuran solution was measured for its two-photon absorption cross-sectional area according to the below-described evaluation method therefor.
# The following Comparative Compound 2, having a typical porphyrin structure, was dissolved in tetrahydrofuran, and the resultant tetrahydrofuran solution was measured for its two-photon absorption cross-sectional area in a similar manner.
# The following Comparative Compound 3, having a conventional, typical diazaporphyrin structure, was dissolved in tetrahydrofuran, and the resultant tetrahydrofuran solution was measured for its two-photon absorption cross-sectional area.
# [drawing 71] [Method for Measuring Two-Photon Absorption Cross-Sectional Area] […]
# A quartz cell filled with each sample solution was placed in a light path through which a focused laser beam was passed. […] The sample solution was measured for its transmittance, and the thus-obtained value and the following theoretical equation (I) were used to determine a nonlinear absorption coefficient of the sample. […]
row,Compound,Two-photon absorption cross-sectional area [GM]
1,COc1ccc(-c2cc(C3=C(c4cc(-c5ccc(OC)cc5)sc4OC)C(F)(F)C(F)(F)C3(F)F)c(OC)s2)cc1 [Comp. Ex. C-1],15

# Assay: Two-photon absorption cross-sectional area, Z scan method, Examples A (800 nm)
# Type: physicochemical
# Conditions: tetrahydrofuran solution, femtosecond titanium sapphire laser
# Procedure: Each of the above-given compounds Nos. 1, 2, 4, 5, 6, 7, 10, 11, 15, 16, 17, 20, 24, 25, 27 and 28 of the present invention was dissolved in tetrahydrofuran, and the resultant solution was measured for its two-photon absorption cross-sectional area according to the below-described evaluation method therefor.
# The following compound (29) was dissolved in tetrahydrofuran, and the resultant solution was measured for its two-photon absorption cross-sectional area according to the below-described evaluation method therefor.
# The following compound (30) was dissolved in tetrahydrofuran, and the resultant solution was measured for its two-photon absorption cross-sectional area according to the below-described evaluation method therefor.
# [drawing 66] [Method for Measuring Two-Photon Absorption Cross-Sectional Area]
# FIG. 8 schematically illustrates a system of the method.
# Measuring light source: femtosecond titanium sapphire laser
# Repetition frequency: 80 MHz
# Measuring method: Z scan method
# Wavelength of light source: 800 nm
# Inner diameter of cuvette: 10 mm
# Light power for measurement: about 500 mW
# Collection diameter: 40 μm to 50 μm
# A quartz cell filled with each sample solution was placed in a light path through which a focused laser beam was passed. Then, the cell was moved along the light path for Z-scan measurement.
# The sample solution was measured for its transmittance, and the thus-obtained value and the following theoretical equation (1) were used to determine a nonlinear absorption coefficient of the sample. T=[ln(1+I0L0β)]/I0L0β (1) where T denotes a transmittance (%), I0 denotes an excited light density [GW/cm^2], L0 denotes a sample cell length [cm], and β denotes a nonlinear absorption coefficient [cm/GW].
# The thus-determined nonlinear absorption coefficient and the following equation (2) were used to calculate a two-photon absorption cross-sectional area σ. Note that the unit of σ is GM (1 GM=1×10^−50 cm^4·s·photon^−1). σ=1,000×hvβ/[…] (2)
# where h denotes the Planck's constant [J·s], v denotes a frequency of an incident laser beam [s^−1], NA denotes the Avogadoro's number, and C denotes a concentration of a solution [mol/L].
row,Two-photon absorption cross-sectional area,Compound
1,"1,480 GM",CC1=C(C)c2nc1c(-c1ccc(C#N)cc1)c1[nH]c(c(C)c1C)c(-c1ccc(/C=C/c3ccc(N(c4ccccc4)c4ccc(C)cc4)cc3)cc1)c1nc(c(-c3ccc(C#N)cc3)c3[nH]c(c(C)c3C)c2-c2ccc(/C=C/c3ccc(N(c4ccccc4)c4ccc(C)cc4)cc3)cc2)C(C)=C1C [compound 5]
2,730 GM,Cc1ccc(N(c2ccc(C)cc2)c2ccc(/C=C/c3ccc(C4=c5ccc6[n]5[Ni][n]5c(ccc5C(c5cccc(C7OCC(C)(C)CO7)c5)=C5C=CC4=N5)C(Cl)=C4C=CC(=N4)C=6c4cccc(C5OCC(C)(C)CO5)c4)cc3)cc2)cc1 [compound 6]
3,"1,020 GM",CCCCCCc1ccc(N(c2ccc(-c3c4nc(c(-c5c(C)cc(C)cc5C)c5[nH]c(cc6nc(c(-c7c(C)cc(C)cc7C)c7[nH]c3c(CC)c7C)C(C)=C6CC)c(CC)c5C)C(C)=C4CC)cc2)c2ccc(-c3c4nc(c(-c5c(C)cc(C)cc5C)c5[nH]c(cc6nc(c(-c7c(C)cc(C)cc7C)c7[nH]c3c(CC)c7C)C(C)=C6CC)c(CC)c5C)C(C)=C4CC)cc2)cc1 [compound 25]
4,870 GM,CCC1=C(CC)c2nc1c(Br)c1[nH]c(c(CC)c1CC)c(-c1ccc([N+](=O)[O-])cc1)c1nc(c(-c3ccc4c(c3)C(C)(C)c3cc(-c5c6nc(c(-c7ccc([N+](=O)[O-])cc7)c7[nH]c(c(Br)c8nc(c(-c9ccc([N+](=O)[O-])cc9)c9[nH]c5c(CC)c9CC)C(CC)=C8CC)c(CC)c7CC)C(CC)=C6CC)ccc3-4)c3[nH]c(c(CC)c3CC)c2-c2ccc([N+](=O)[O-])cc2)C(CC)=C1CC [compound 27]
5,590 GM,CCC1=C(CC)C2=C(Br)c3c(CC)c(CC)c4[n]3[Zn][n]3c(c(CC)c(CC)c3=C(c3ccc5c(c3)C(C)(C)c3cc(C6=C7N=C(C(CC)=C7CC)C(c7ccc([N+](=O)[O-])cc7)=c7c(CC)c(CC)c8[n]7[Zn][n]7c(c(CC)c(CC)c76)C(c6ccc([N+](=O)[O-])cc6)=C6N=C(C(CC)=C6CC)C=8Br)ccc3-5)C3=NC(=C4c4ccc([N+](=O)[O-])cc4)C(CC)=C3CC)=C(c3ccc([N+](=O)[O-])cc3)C1=N2 [compound 28]

row,Compound,Two-photon absorption cross-sectional area
1,"COc1ccc(-c2cc(C3=C(c4cc(-c5ccc(OC)cc5)sc4OC)C(F)(F)C(F)(F)C3(F)F)c(OC)s2)cc1 [compound 30, reference compound]",15 GM
